Article PMC5474949 (Journal of medicinal chemistry, 2016)
“Also recorded” adds a separate entry of the source.

What was measured:
MDCK-mdr1 cells = assay: MDCK-mdr1 permeability assay; format: in vitro ADME, canine; conditions: 10 μM apical, 1 h, 37 °C, pH 7.4
central CB1Rs = assay: Tetrad CNS side effect tests; format: in vivo, rat; conditions: naïve rats; for CNS side effects in catalepsy, rotarod, hypothermia assays: ip, 0.3 mg/kg and 3-fold higher doses; for CNS side effects in catalepsy, motor incoordination, hypothermia assays: oral, up to 10 mg/kg
[1] = tested on: neuropathy induced by unilateral sciatic nerve entrapment (SNE); assay: SNE-induced mechanical allodynia; format: in vivo, rat; conditions: SNE rats
[2] = tested on: acute nociception in naïve rats; assay: Tail-flick test; format: in vivo, rat
hCB1R = hCB1R (Homo sapiens, UniProt P21554); assay: CB1R radioligand displacement binding assay; conditions: for Ki: read-out: Ki (nM) hCB1R vs CP55,940, [3H]-CP55940 displacement, Cheng–Prusoff
[3] = Pharmacokinetics: plasma, brain and CSF levels; conditions: rat, 0.3 mg/kg ip, ~75 min
[4] = tested on: antiallodynic effect of 2-5u in the SNE neuropathy; assay: Pretreatment with CB1R/CB2R blockers before 2-5u in SNE rats; format: in vivo, rat; conditions: blocker (2 and 3: 3 mg/kg ip) 30 min before 2-5u 0.6 mg/kg

Chain of hCB1R (P21554 whole entry): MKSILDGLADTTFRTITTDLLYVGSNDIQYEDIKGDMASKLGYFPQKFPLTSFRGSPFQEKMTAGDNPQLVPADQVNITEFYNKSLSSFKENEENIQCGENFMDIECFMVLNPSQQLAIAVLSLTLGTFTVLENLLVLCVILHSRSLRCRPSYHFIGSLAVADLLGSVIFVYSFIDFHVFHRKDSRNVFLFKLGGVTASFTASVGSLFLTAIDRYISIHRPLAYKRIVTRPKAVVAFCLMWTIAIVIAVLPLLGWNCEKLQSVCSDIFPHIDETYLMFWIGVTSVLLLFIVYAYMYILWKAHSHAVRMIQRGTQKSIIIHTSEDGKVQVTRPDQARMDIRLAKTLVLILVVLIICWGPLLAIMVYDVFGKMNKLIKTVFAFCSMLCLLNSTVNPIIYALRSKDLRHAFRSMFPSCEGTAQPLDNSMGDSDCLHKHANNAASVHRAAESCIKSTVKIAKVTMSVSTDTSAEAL

Compound: COc1ccc(/C=C2\C=C(CCN3CCOCC3)c3ccccc32)c2ccccc12 [2-5j, 4-{2-[(1E)-1-[(4-Methoxynaphthalen-1-yl)methylidene]-1H-inden-3-yl]ethyl}morpholine]
- MDCK B/A ratio (basolateral:apical) (MDCK-mdr1 cells): 0.000
- CNS side effects in catalepsy, rotarod, hypothermia assays (central CB1Rs): no effect in the assays of CNS CB1R activation
- CNS side effects in catalepsy, motor incoordination, hypothermia assays (central CB1Rs): relative lack of side effects in the catalepsy, motor incoordination, and hypothermia assays
- suppression of SNE-induced mechanical allodynia ([1]; 0.3 mg/kg ip, 0.3 mg/kg): large, reversible decreases in mechanical allodynia; also recorded: complete suppression of mechanical allodynia symptoms
- effect in tail-flick assay ([2]; oral): small effects in the tail-flick assay

Compound: CCCCCn1cc(C(=O)c2cccc3ccccc23)c2cc(F)ccc21 [1-4i, 5-Fluoro-3-[(naphthalen-1-yl)carbonyl]-1-pentyl-1H-indole]
- MDCK B/A ratio (basolateral:apical) (MDCK-mdr1 cells): 0.000

Compound: CCCCCn1cc(C(=O)c2ccc(C(=O)OC)c3ccccc23)c2ccccc21 [1-4a, Methyl 4-[(1-Pentyl-1H-indol-3-yl)carbonyl]naphthalene-1-carboxylate]
- MDCK B/A ratio (basolateral:apical) (MDCK-mdr1 cells): 0.00

Compound: CCCCCn1cc(C(=O)c2cccc3ccccc23)c2c(F)cccc21 [1-4h, 4-Fluoro-3-[(naphthalen-1-yl)carbonyl]-1-pentyl-1H-indole]
- MDCK B/A ratio (basolateral:apical) (MDCK-mdr1 cells): 0.000

Compound: N-(3-Carboxybutyl)-3-(1-naphthoyl)-1H-indole [1-4g]
- Ki (hCB1R): > 10000 nM

Compound: CCCCCn1cc(C(=O)c2cccc3ccccc23)c2cccc(F)c21 [1-4k, 7-Fluoro-3-[(naphthalen-1-yl)carbonyl]-1-pentyl-1H-indole]
- MDCK B/A ratio (basolateral:apical) (MDCK-mdr1 cells): 0.000

Compound: CCc1ccc(/C=C2\C=C(CCN3CCOCC3)c3ccccc32)c2ccccc12 [2-5t, 4-{2-[(1E)-1-[(4-Ethylnaphthalen-1-yl)methylidene]-1H-indenyl]-ethyl}morpholine]
- MDCK B/A ratio (basolateral:apical) (MDCK-mdr1 cells): 0.000
- CNS side effects in catalepsy, motor incoordination, hypothermia assays (central CB1Rs): relative lack of side effects in the catalepsy, motor incoordination, and hypothermia assays
- effect in tail-flick assay ([2]; oral): small effects in the tail-flick assay

Compound: CCCCCC1=C/C(=C\c2cccc3ccccc23)c2ccccc21 [2-7a, 1-{[(1E)-3-pentyl-1H-inden-1-ylidene]methyl}naphthalene, reference compound]
- MDCK B/A ratio (basolateral:apical) (MDCK-mdr1 cells): 0.04

Compound: CCCCCCC(C)(C)c1cc(O)c2c(c1)OC(C)(C)[C@@H]1CC=C(CO)C[C@@H]21 [compound 1, reference compound]
- CNS side effects in catalepsy (ring), core temperature, rotarod tests (central CB1Rs; 0.01 mg/kg ip, positive control, 0.01 mg/kg): strong CNS side effects; also recorded: profound CNS side effects

Compound: CCCCCn1cc(C(=O)c2cccc3ccccc23)c2ccc(F)cc21 [1-4j, 6-Fluoro-3-[(naphthalen-1-yl)carbonyl]-1-pentyl-1H-indole]
- MDCK B/A ratio (basolateral:apical) (MDCK-mdr1 cells): 0.000

Compound: COC(=O)c1ccc(C(=O)c2cn(CCN3CCOCC3)c3ccccc23)c2ccccc12 [1-4o]
- MDCK B/A ratio (basolateral:apical) (MDCK-mdr1 cells): 1.02

Compound: (1E)-3-hexyl-1-(2-phenylethylidene)-1H-indene [2-7c]
- Ki (hCB1R): 4410 nM
- loss of hCB1R affinity versus 2-7a (hCB1R; versus 2-7a (pentyl)): 256 fold
- loss of hCB1R affinity versus 2-7b (hCB1R; versus naphthylidene analogue 2-7b (n-hexyl)): 10 fold

Compound: CCCc1ccc(/C=C2\C=C(CCN3CCOCC3)c3ccccc32)c2ccccc12 [2-5u, 4-{2-[(1E)-1-[(4-Propylnaphthalen-1-yl)methylidene]-1H-inden-3-yl]ethyl}morpholine]
- MDCK B/A ratio (basolateral:apical) (MDCK-mdr1 cells): 0.000
- CNS side effects in catalepsy, rotarod, hypothermia assays (central CB1Rs; 0.3 mg/kg): lack effects in the catalepsy, rotarod, or hypothermia assays; also recorded: no effect in the assays of CNS CB1R activation
- CNS side effects in catalepsy, motor incoordination, hypothermia assays (central CB1Rs): relative lack of side effects in the catalepsy, motor incoordination, and hypothermia assays; also recorded: no significant effect on central CB1Rs
- CNS penetration (plasma, brain, CSF samples) [3]: minimal penetration of 2-5u into the CNS
- suppression of SNE-induced mechanical allodynia ([1]; 0.3 mg/kg ip, 0.3 mg/kg): large, reversible decreases in mechanical allodynia; also recorded: ipsilateral thresholds are increased to levels of predrug contralateral thresholds; also recorded: complete suppression of mechanical allodynia symptoms
- suppression of SNE-induced mechanical allodynia ([1]; 3 mg/kg oral, 3 mg/kg): reversibly suppresses SNE neuropathy symptoms; also recorded: effective in suppressing neuropathy symptoms after oral administration; also recorded: complete suppression of allodynia symptoms at peak effect
- effect in tail-flick assay ([2]; ip (2-5u 0.3 mg/kg)): small effect in the tail-flick assay; also recorded: small analgesic effect; also recorded: small effects on acute nociception
- effect in tail-flick assay ([2]; oral): small effects in the tail-flick assay

Compound: N-(3-Ethoxycarbonylbutyl)-3-(1-naphthoyl)-1H-indole [1-4e]
- Ki (hCB1R): 1470 nM

Compound: C1=C(CCN2CCOCC2)c2ccccc2/C1=C/c1cccc2ccccc12 [2-5a, 4-{2-[(1E)-1-(Naphthalen-1-ylmethylidene)-1H-inden-3-yl]ethyl}-morpholine]
- suppression of SNE-induced mechanical allodynia ([1]; 0.3 mg/kg ip, 0.3 mg/kg): much smaller effect; also recorded: considerably smaller increases in thresholds than 2-5u or 2-5j

Compound: Cc1c(C(=O)NN2CCCCC2)nn(-c2ccc(Cl)cc2Cl)c1-c1ccc(Cl)cc1 [compound 2]
- effect of pretreatment on antiallodynic effect of 2-5u [4]: completely blocked the antiallodynic effect of 2-5u; also recorded: completely blocks the response to 2-5u
